Experimental data taken from PubChem BioAssay AID330 (DTP/NCI, 2004).
Values joined by “and” are separate entries in the source; they are usually repeats but may differ in a detail not shown here. Identical values can stand only once. Toxic doses and inconclusive results are not listed.

Tested on: P388 leukemia ip, CD2F1 mice, survival T/C
Experiment: NCI In Vivo Anticancer Drug Screen. Data for tumor model P388 Leukemia (intraperitoneal) in CD2F1 (CDF1) mice
Settings: endpoint: median survival time, higher = longer survival
Outline: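 Mice carrying the transplanted tumor received test compound or vehicle. Survival was recorded in each group, and the value is the treated-group measurement divided by that of the vehicle-treated control group.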

[1] = dose: 100.0 mg/kg/injection, schedule: Q04DX002 (ip), vehicle: saline
[2] = dose: 200.0 mg/kg/injection, schedule: Q04DX002 (ip), vehicle: saline
[3] = dose: 400.0 mg/kg/injection, schedule: Q04DX002 (ip), vehicle: saline
[4] = dose: 100.0 mg/kg/injection, schedule: Q01DX001 (ip), vehicle: saline with Tween-80
[5] = dose: 200.0 mg/kg/injection, schedule: Q01DX001 (ip), vehicle: saline with Tween-80
[6] = dose: 50.0 mg/kg/injection, schedule: Q01DX005 (ip), vehicle: Klucel (hydroxypropylcellulose) (HPC)
[7] = dose: 100.0 mg/kg/injection, schedule: Q01DX005 (ip), vehicle: Klucel (hydroxypropylcellulose) (HPC)
[8] = dose: 200.0 mg/kg/injection, schedule: Q01DX005 (ip), vehicle: Klucel (hydroxypropylcellulose) (HPC)
[9] = dose: 400.0 mg/kg/injection, schedule: Q01DX001 (ip), vehicle: saline with Tween-80
[10] = dose: 200.0 mg/kg/injection, schedule: Q01DX001 (ip), vehicle: Klucel (hydroxypropylcellulose) (HPC)
[11] = dose: 400.0 mg/kg/injection, schedule: Q01DX001 (ip), vehicle: Klucel (hydroxypropylcellulose) (HPC)
[12] = dose: 50.0 mg/kg/injection, schedule: Q01DX009 (ip), vehicle: saline

Compound: O=C1c2ccccc2C(=O)N1CBr
- T/C (dose: 12.5 mg/kg/injection, schedule: Q01DX009 (ip), vehicle: saline with Tween-80): 109 % of control
- T/C (dose: 25.0 mg/kg/injection, schedule: Q01DX009 (ip), vehicle: saline with Tween-80): 104 % of control
- T/C (dose: 50.0 mg/kg/injection, schedule: Q01DX009 (ip), vehicle: saline with Tween-80): 100 % of control

Compound: COc1ccc(-c2cc(-c3ccccc3)[nH]c2-c2ccccc2)cc1
- T/C [1]: 98 % of control
- T/C [2]: 105 % of control
- T/C [3]: 100 % of control

Compound: C/C(=N\SC(c1ccccc1)(c1ccccc1)c1ccccc1)c1ccccc1
- T/C [4]: 95 % of control
- T/C [5]: 88 % of control

Compound: O=C(NC(CO)C(=O)O)C(Cl)Cl (configuration not stated)
- T/C [6]: 101 % of control
- T/C [7]: 95 % of control
- T/C [8]: 101 % of control

Compound: C=C(C)C1NC(=O)C(C(O)c2cc(O)c(O)c(Cl)c2)N(C)C(=O)/C(=C/C(=O)O)NC(=O)/C(=C(\C)CC)NC(=O)C2C=CCN2C(=O)C(C(C)(O)CC)NC1=O (configuration not stated)
- T/C (dose: 0.65 mg/kg/injection, schedule: Q01DX005 (ip), vehicle: Klucel (hydroxypropylcellulose) (HPC)): 88 % of control
- T/C (dose: 1.25 mg/kg/injection, schedule: Q01DX005 (ip), vehicle: Klucel (hydroxypropylcellulose) (HPC)): 95 % of control
- T/C (dose: 2.5 mg/kg/injection, schedule: Q01DX005 (ip), vehicle: Klucel (hydroxypropylcellulose) (HPC)): 91 % of control

Compound: C=CC(C)(CCC1C(C)=CCC2C(C)(C)CCCC12C)OC1OC(C)C(O)C(O)C1O (configuration not stated)
- T/C (dose: 19.0 mg/kg/injection, schedule: Q01DX005 (ip), vehicle: Klucel (hydroxypropylcellulose) (HPC)): 102 % of control
- T/C (dose: 20.0 mg/kg/injection, schedule: Q01DX005 (ip), vehicle: Klucel (hydroxypropylcellulose) (HPC)): 97 % of control
- T/C (dose: 21.0 mg/kg/injection, schedule: Q01DX005 (ip), vehicle: Klucel (hydroxypropylcellulose) (HPC)): 100 % of control
- T/C (dose: 38.0 mg/kg/injection, schedule: Q01DX005 (ip), vehicle: Klucel (hydroxypropylcellulose) (HPC)): 101 % of control
- T/C (dose: 40.0 mg/kg/injection, schedule: Q01DX005 (ip), vehicle: Klucel (hydroxypropylcellulose) (HPC)): 103 % of control
- T/C (dose: 42.0 mg/kg/injection, schedule: Q01DX005 (ip), vehicle: Klucel (hydroxypropylcellulose) (HPC)): 98 % of control
- T/C (dose: 76.0 mg/kg/injection, schedule: Q01DX005 (ip), vehicle: Klucel (hydroxypropylcellulose) (HPC)): 98 % of control
- T/C (dose: 80.0 mg/kg/injection, schedule: Q01DX005 (ip), vehicle: Klucel (hydroxypropylcellulose) (HPC)): 98 % of control
- T/C (dose: 84.0 mg/kg/injection, schedule: Q01DX005 (ip), vehicle: Klucel (hydroxypropylcellulose) (HPC)): 102 % of control
- T/C (dose: 152.0 mg/kg/injection, schedule: Q01DX005 (ip), vehicle: Klucel (hydroxypropylcellulose) (HPC)): 108 % of control
- T/C (dose: 160.0 mg/kg/injection, schedule: Q01DX005 (ip), vehicle: Klucel (hydroxypropylcellulose) (HPC)): 93 % of control
- T/C (dose: 168.0 mg/kg/injection, schedule: Q01DX005 (ip), vehicle: Klucel (hydroxypropylcellulose) (HPC)): 98 % of control

Compound: Cc1ccc(N=Nc2c(O)n(-c3ccc(Br)cc3)c(=S)n(-c3ccccc3)c2=O)cc1
- T/C [4]: 95 % of control
- T/C [5]: 100 % of control
- T/C [9]: 90 % of control

Compound: Cn1ccccc1=NCC(N)=O
- T/C [1]: 99 % of control
- T/C [2]: 104 % of control
- T/C [3]: 102 % of control

Compound: CCC(O)(C(=O)O)c1ccccc1 (configuration not stated)
- T/C (dose: 25.0 mg/kg/injection, schedule: Q04DX003 (ip), vehicle: saline): 105 % of control
- T/C (dose: 50.0 mg/kg/injection, schedule: Q04DX003 (ip), vehicle: saline): 97 % of control
- T/C (dose: 100.0 mg/kg/injection, schedule: Q04DX003 (ip), vehicle: saline): 94 % of control
- T/C (dose: 200.0 mg/kg/injection, schedule: Q04DX003 (ip), vehicle: saline): 100 % of control

Compound: NC(=S)N/N=C/c1[nH]c2cc(Br)c(Br)cc2c1Br
- T/C [4]: 91 % of control
- T/C [5]: 91 % of control
- T/C [9]: 98 % of control

Compound: N#Cc1c(-c2ccc(Br)cc2)c(-c2ccc(Br)cc2)n[nH]c1=O
- T/C [4]: 91 % of control
- T/C [5]: 95 % of control
- T/C [9]: 95 % of control

Compound: CC1CCc2c(c3ccc(O)cc3oc2=O)C1 (configuration not stated)
- T/C [6]: 101 % of control
- T/C [7]: 96 % of control
- T/C [8]: 92 % of control

Compound: O=C1C(N=Nc2cc(Cl)ccc2Cl)C(O)N(c2ccccc2)C(=S)N1c1cccc(Cl)c1Cl (configuration not stated)
- T/C (dose: 100.0 mg/kg/injection, schedule: Q01DX001 (ip), vehicle: Klucel (hydroxypropylcellulose) (HPC)): 98 % of control
- T/C [10]: 97 % of control
- T/C [11]: 92 % of control

Compound: O=C1CCCCc2ccc(O)cc21
- T/C (dose: 100.0 mg/kg/injection, schedule: Q01DX009 (ip), vehicle: gum acacia): 104 % of control
- T/C (dose: 200.0 mg/kg/injection, schedule: Q01DX009 (ip), vehicle: gum acacia): 102 % of control
- T/C (dose: 400.0 mg/kg/injection, schedule: Q01DX009 (ip), vehicle: gum acacia): 110 % of control

Compound: O=C1CSC(=S)N1c1cc(Cl)c(Cl)cc1Cl
- T/C (dose: 50.0 mg/kg/injection, schedule: Q01DX009 (ip), vehicle: suspension in saline): 102 % of control
- T/C (dose: 100.0 mg/kg/injection, schedule: Q01DX009 (ip), vehicle: suspension in saline): 100 % of control
- T/C (dose: 200.0 mg/kg/injection, schedule: Q01DX009 (ip), vehicle: suspension in saline): 93 % of control

Compound: CCCCCCCCCCS(=O)CC(CO)NC(=O)/C=C/c1c(C)[nH]c(=O)[nH]c1=O (configuration not stated)
- T/C (dose: 0.78 mg/kg/injection, schedule: Q01DX009 (ip), vehicle: other): 107 % of control and 116 % of control
- T/C (dose: 1.56 mg/kg/injection, schedule: Q01DX009 (ip), vehicle: other): 115 % of control
- T/C (dose: 6.25 mg/kg/injection, schedule: Q01DX009 (ip), vehicle: other): 153 % of control

Compound: COP(=O)(O)OC
- T/C [10]: 88 % of control
- T/C [11]: 100 % of control

Compound: COc1ccc(Cl)cc1C(=O)NCCc1ccc(CCC(=O)O)cc1
- T/C (dose: 50.0 mg/kg/injection, schedule: Q01DX009 (ip), vehicle: Klucel (hydroxypropylcellulose) (HPC)): 99 % of control
- T/C (dose: 100.0 mg/kg/injection, schedule: Q01DX009 (ip), vehicle: Klucel (hydroxypropylcellulose) (HPC)): 98 % of control
- T/C (dose: 200.0 mg/kg/injection, schedule: Q01DX009 (ip), vehicle: Klucel (hydroxypropylcellulose) (HPC)): 102 % of control

Compound: O=CNC(Cc1ccc(O)cc1)C(=O)O (configuration not stated)
- T/C (dose: 12.5 mg/kg/injection, schedule: Q01DX005 (ip), vehicle: Klucel (hydroxypropylcellulose) (HPC)): 102 % of control and 105 % of control
- T/C (dose: 25.0 mg/kg/injection, schedule: Q01DX005 (ip), vehicle: Klucel (hydroxypropylcellulose) (HPC)): 100 % of control and 104 % of control
- T/C [7]: 101 % of control and 107 % of control
- T/C [8]: 96 % of control

Compound: O=C(CN1C(=O)c2ccccc2C1=O)OCCNCCCl
- T/C [12]: 99 % of control
- T/C (dose: 100.0 mg/kg/injection, schedule: Q01DX009 (ip), vehicle: saline): 106 % of control
- T/C (dose: 200.0 mg/kg/injection, schedule: Q01DX009 (ip), vehicle: saline): 107 % of control

Compound: Cc1ccnc(NC2=CC(=O)C(=O)c3ccccc32)c1
- T/C (dose: 37.5 mg/kg/injection, schedule: Q01DX009 (ip), vehicle: saline sonified): 122 % of control

Compound: CC1CC(c2ccccc2Cl)C(c2ccccc2)C(=O)O1 (configuration not stated)
- T/C (dose: 100.0 mg/kg/injection, schedule: Q04DX003 (ip), vehicle: Klucel (hydroxypropylcellulose) (HPC)): 100 % of control
- T/C (dose: 200.0 mg/kg/injection, schedule: Q04DX003 (ip), vehicle: Klucel (hydroxypropylcellulose) (HPC)): 106 % of control
- T/C (dose: 400.0 mg/kg/injection, schedule: Q04DX003 (ip), vehicle: Klucel (hydroxypropylcellulose) (HPC)): 108 % of control

Compound: C1=C[N-]c2c3c(ccc2=C1)=CC=C[N-]3.C1=C[N-]c2c3c(ccc2=C1)=CC=C[N-]3.[Cl][Ru][Cl]
- T/C (dose: 1.56 mg/kg/injection, schedule: Q01DX005 (ip), vehicle: saline with Tween-80): 88 % of control
- T/C (dose: 3.13 mg/kg/injection, schedule: Q01DX005 (ip), vehicle: saline with Tween-80): 111 % of control
- T/C (dose: 6.25 mg/kg/injection, schedule: Q01DX005 (ip), vehicle: saline with Tween-80): 104 % of control

Compound: CCc1c(C#N)c(S)[nH]c(=S)c1C#N
- T/C (dose: 12.5 mg/kg/injection, schedule: Q01DX009 (ip), vehicle: saline): 90 % of control
- T/C (dose: 25.0 mg/kg/injection, schedule: Q01DX009 (ip), vehicle: saline): 100 % of control
- T/C [12]: 98 % of control and 102 % of control

Compound: CC1C(=O)C23CC1CCC2C12COC(=O)C1C(C)(C)C(O)CC2OC3=O (configuration not stated)
- T/C (dose: 50.0 mg/kg/injection, schedule: Q04DX002 (ip), vehicle: saline with Tween-80): 113 % of control
- T/C (dose: 100.0 mg/kg/injection, schedule: Q04DX002 (ip), vehicle: saline with Tween-80): 93 % of control
- T/C (dose: 200.0 mg/kg/injection, schedule: Q04DX002 (ip), vehicle: saline with Tween-80): 112 % of control
